Measurements reported in patent US20250280696A1, “FORMULATIONS AND USES THEREOF IN OPTOELECTRONIC FIELD” (Zhejiang Brilliant Optoelectronic Technology Co.,Ltd., priority 2022, published 2025).

What was measured:
Format in all cases: physicochemical
[1] = Absorption and emission spectrum in spin-coated film; settings: for Red shift of the spectrum in the film relative to the solution: film vs toluene solution
Method: The Absorption and emission spectrums of the compounds in the film were determined as follows: • 1. The compound with a certain concentration in the toluene was prepared. • 2. The prepared toluene solution was dropped onto a clean glass substrate. • 3. Spin-coating, and then heating at the 80° C. for 1 min. • 4. The absorption spectrum of the film was measured by using an ultraviolet-visible spectrophotometer (Puxi T9s) to obtain the absorption peak wavelength. • 5. The emission spectrum of the film was measured by using a fluorescent spectroscope (Hitachi, F-4700 FL Spectrophotometer) to obtain the emission peak wavelength.
(§1) The extinction coefficients of the compounds and their absorption and emission peaks in the solution and film are shown in Table 3.

[2] = Solubility of compounds in toluene; settings: per 100 g toluene
Method: The solubility of the compounds in the toluene were determined as follows: • 1. 1000 mg toluene was placed in the transparent glass sample bottle. • 2. A certain mass of the compound was added into the toluene, and oscillated until completely dissolved. • 3. After the compound was completely dissolved, a certain mass of the compound was further added into the toluene, and oscillated. • 4. The above steps were repeated until the compound wasn't dissolved any more. • 5. The total mass of the compound added was recorded and the solubility was obtained by calculation.

[3] = Absorption spectrum, emission spectrum and extinction coefficient in toluene solution; settings: for Molar extinction coefficient of the toluene solution: at maximum absorption peak
Method: The extinction coefficients of the compounds and their absorption and emission spectrums in the solution were determined as follows: • 1. The compound with a certain amount of substance concentration in the toluene was prepared in a volumetric flask. • 2. The absorption spectrum of the solution was measured by using an ultraviolet-visible spectrophotometer (Puxi T9s) to obtain the absorption peak wavelength. • 3. The absorbance of the maximum absorption peak divided by the amount of substance concentration is the molar extinction coefficient of the compound. • 4. The emission spectrum of the solution was measured by using a fluorescent spectroscope (Hitachi, F-4700 FL Spectrophotometer) to obtain the emission peak wavelength.
as §1

[4] = UV stability of compounds in toluene (absorbance decay, t80); settings: for Times t80: UV LEDs 365 nm & 255 nm, 12 cm, time until absorbance decayed to 80% of initial value
Method: The UV stability of the compounds were tested as follows:
The compound was dissolved in the toluene with a concentration of 1×10^5 mol/L. 3 mL solution was added to the cuvette with a lid and the lid was screwed on tightly, then the cuvette was placed in the ultraviolet-visible spectrophotometer to test the absorption spectrum, the absorbance of the maximum absorption peak was recorded as the initial value. The cuvette was placed at a distance of 12 cm from the UV LEDs (365 nm & 255 nm), irradiated for a period and tested its absorption spectrum, then continued to be irradiated after the test, and repeated until the absorbance decayed to 80% of its initial value, the time was recorded as t80.

SMILES	Red shift of the spectrum in the film relative to the solution [1]	Absorption peak of the film ([1]; spin-coated film on glass) [nm]	Emission peak of the film ([1]; spin-coated film on glass) [nm]	Solubilities(/100 g toluene) [2] [g]	Absorption peak of the toluene solution [3] [nm]	Emission peak of the toluene solution [3] [nm]	Molar extinction coefficient of the toluene solution [3] [L/mol]	UV stability compared with the unfluorinated compound 20 ([4]; UV irradiation)	Times t80 [4] [min]
Fc1cccc(F)c1N(c1ccccc1)c1cc(N(c2ccccc2)c2c(F)cccc2F)c2ccc3c(N(c4ccccc4)c4c(F)cccc4F)cc(N(c4ccccc4)c4c(F)cccc4F)c4ccc1c2c43 [Compound 17]	large red shift	445	496	>1	439	462	18000	greatly improved	
CC1CCC(C(C)C)C(Oc2ccc(-c3cc(C(C)C)ccc3N(c3cc(F)c(F)c(F)c3)c3cc(N(c4cc(F)c(F)c(F)c4)c4ccc(C(C)C)cc4-c4ccc(OC5CC(C)CCC5C(C)C)cc4)c4ccc5c(N(c6cc(F)c(F)c(F)c6)c6ccc(C(C)C)cc6-c6ccc(OC7CC(C)CCC7C(C)C)cc6)cc(N(c6cc(F)c(F)c(F)c6)c6ccc(C(C)C)cc6-c6ccc(OC7CC(C)CCC7C(C)C)cc6)c6ccc3c4c65)cc2)C1 (stereo not shown) [Compound 23]	very small red shift			>10			68000		405
CCCCCCCCc1ccc(-c2cc(OC)ccc2N(c2cc(F)c(F)c(F)c2)c2cc(N(c3cc(F)c(F)c(F)c3)c3ccc(OC)cc3-c3ccc(CCCCCCCC)cc3)c3ccc4c(N(c5cc(F)c(F)c(F)c5)c5ccc(OC)cc5-c5ccc(CCCCCCCC)cc5)cc(N(c5cc(F)c(F)c(F)c5)c5ccc(OC)cc5-c5ccc(CCCCCCCC)cc5)c5ccc2c3c54)cc1 [Compound 24]	very small red shift			>10			70000		352
